Entries after “also recorded” stand apart in the source; their conditions may differ.
Tests used:
HepG2 = assay: MTT assay; assay type: cell-based; details: Homo sapiens; Parental cell line HepG2, MTT, 72 h
NCI-H226 = assay: NCI60 assay; assay type: cell-based; details: Homo sapiens; Non-small cell lung cancer, NCI-H226, 48 h
Method: (§1) CYB-L10 was tested using the protocols by the NCI, which has been described previously. […] The overall antiproliferative potential is quantified as a mean-graph midpoint (MGM). […] It was selected and submitted to National Cancer Institute (NCI, USA) for a developmental therapeutics assay against the 60 clinical tumor cell lines representing nine tissue types (NCI60)[23–25]. The tumor cells were incubated with CYB-L10 for 48 h and stained with sulphorhodamine B dye. Cell growth inhibition (GI50) was calculated relative to the control without compound.

OVCAR-8 = assay: NCI60 assay; assay type: cell-based; details: Homo sapiens; Ovarian cancer, OVCAR-8, 48 h
Method: as §1

SNB-75 = assay: NCI60 assay; assay type: cell-based; details: Homo sapiens; CNS cancer, SNB-75, 48 h
Method: as §1

CAKI-1 = assay: NCI60 assay; assay type: cell-based; details: Homo sapiens; Renal cancer, CAKI-1, 48 h
Method: as §1

HS 578T = assay: NCI60 assay; assay type: cell-based; details: Homo sapiens, Breast cancer, 48 h
Method: as §1

UACC-257 = assay: NCI60 assay; assay type: cell-based; details: Homo sapiens; Melanoma, UACC-257, 48 h
Method: as §1

HT29 = assay: NCI60 assay; assay type: cell-based; details: Homo sapiens, HT-29; Colon cancer, HT29, 48 h
Method: as §1

SN 12C = assay: NCI60 assay; assay type: cell-based; details: Homo sapiens, SN12C, Renal cancer, 48 h
Method: as §1

DU-145 = assay: NCI60 assay; assay type: cell-based; details: Homo sapiens, Prostate cancer, DU-145, 48 h
Method: as §1

SR = assay: NCI60 assay; assay type: cell-based; details: Homo sapiens, Leukemia, 48 h
Method: as §1

MCF7 = assay: NCI60 assay; assay type: cell-based; details: Homo sapiens, Breast cancer, MCF7, 48 h
Method: as §1

PC-3 = assay: NCI60 assay; assay type: cell-based; details: Homo sapiens; Prostate cancer, PC-3, 48 h
Method: as §1

TK-10 = assay: NCI60 assay; assay type: cell-based; details: Homo sapiens; Renal cancer, TK-10, 48 h
Method: as §1

M14 = assay: NCI60 assay; assay type: cell-based; details: Homo sapiens; Melanoma, M14, 48 h
Method: as §1

UO-31 = assay: NCI60 assay; assay type: cell-based; details: Homo sapiens; Renal cancer, UO-31, 48 h
Method: as §1

OVCAR-5 = assay: NCI60 assay; assay type: cell-based; details: Homo sapiens; Ovarian cancer, OVCAR-5, 48 h
Method: as §1

SF-268 = assay: NCI60 assay; assay type: cell-based; details: Homo sapiens; CNS cancer, SF-268, 48 h
Method: as §1

IGROV1 = assay: NCI60 assay; assay type: cell-based; details: Homo sapiens, IGROV-1; Ovarian cancer, IGROV1, 48 h
Method: as §1

MCF-7/ADR = assay: MTT assay; assay type: cell-based, human
HCT116 = assay: MTT assay; assay type: cell-based; details: Homo sapiens, HCT-116; Parental cell line HCT116, MTT, 72 h
MCF-7 = assay: MTT assay; assay type: cell-based; details: Homo sapiens, MCF7; Parental cell line MCF-7, MTT, 72 h
HCT116 xenograft = assay: In vivo antitumor activity, HCT116 xenograft; set-up: species or system nude mice; details: for tumor weight inhibition (TWI): HCT116 xenograft nude mice
Method: Athymic nude mice bearing the nu/nu gene were obtained from Laboratory Animal Center of Sun Yat-sen University and maintained in pathogen-free conditions to establish the model of xenografts of HCT116. All animals were used under the Policy on the Care and Use of Laboratory Animal of Sun Yat-sen University. Male nude mice 4–5 weeks old weighing 12–15 g were used. HCT116 tumor preinduced in the mice by subcutaneously injecting of HCT116 cells (100 µL, 1 × 10^7 cells) was implanted. When the implanted tumors had reached a volume of about 80 mm^3, the mice were randomly divided into three groups (n = 5) and administered by i.p. injection at a frequency of once every 3 days. The testing groups were treated with CYB-L10 at 20 mg/kg and 6.7 mg/kg dose, respectively. The control group was treated with an equivalent volume of saline. Tumor volumes (V) were monitored by caliper measurement of the length and width, and calculated using the formula: V = (larger diameter) × (smaller diameter)^2/2, and growth curves were plotted using average tumor volume within each experimental group at the set time points. At the end of treatment, the animals were sacrificed, and the tumors were removed and weighed. The tumor weight inhibition (TWI) was calculated according to the formula: TWI = (1 − Mean tumor weight of the experimental group/Mean tumor weight of the control group) × 100%. Statistical comparisons were conducted using a one-way analysis of variance, followed by Tukey’s test.
A human colon cancer HCT116 xenograft nude mice model was established to evaluate the antitumor efficiency of CYB-L10 in vivo. Mice were randomly divided into three groups and administered i.p. injection at a frequency of once every 3 days. Two groups were treated with CYB-L10 at 20 mg/kg and 6.7 mg/kg dose, respectively. The negative control group was treated with an equivalent volume of saline.

[1] = system: 60 human clinical cancer cell lines (NCI60); assay: NCI60 assay, mean-graph midpoint; assay type: cell-based; details: NCI60, 48 h
Method: as §1

RC0.1 = assay: MTT assay
HCT116-siTop1 = assay: MTT assay; assay type: cell-based; details: Homo sapiens; Resistant subline HCT116-siTop1, MTT, 72 h
P-glycoprotein (Pgp) = P-glycoprotein (Pgp) (Homo sapiens, UniProt P08183); assay: Pgp substrate assessment in Pgp-overexpressing resistant sublines; details: from MCF-7/ADR and HepG2/ADR sublines with overexpressed Pgp
Sequence of P-glycoprotein (Pgp) (P08183 whole entry): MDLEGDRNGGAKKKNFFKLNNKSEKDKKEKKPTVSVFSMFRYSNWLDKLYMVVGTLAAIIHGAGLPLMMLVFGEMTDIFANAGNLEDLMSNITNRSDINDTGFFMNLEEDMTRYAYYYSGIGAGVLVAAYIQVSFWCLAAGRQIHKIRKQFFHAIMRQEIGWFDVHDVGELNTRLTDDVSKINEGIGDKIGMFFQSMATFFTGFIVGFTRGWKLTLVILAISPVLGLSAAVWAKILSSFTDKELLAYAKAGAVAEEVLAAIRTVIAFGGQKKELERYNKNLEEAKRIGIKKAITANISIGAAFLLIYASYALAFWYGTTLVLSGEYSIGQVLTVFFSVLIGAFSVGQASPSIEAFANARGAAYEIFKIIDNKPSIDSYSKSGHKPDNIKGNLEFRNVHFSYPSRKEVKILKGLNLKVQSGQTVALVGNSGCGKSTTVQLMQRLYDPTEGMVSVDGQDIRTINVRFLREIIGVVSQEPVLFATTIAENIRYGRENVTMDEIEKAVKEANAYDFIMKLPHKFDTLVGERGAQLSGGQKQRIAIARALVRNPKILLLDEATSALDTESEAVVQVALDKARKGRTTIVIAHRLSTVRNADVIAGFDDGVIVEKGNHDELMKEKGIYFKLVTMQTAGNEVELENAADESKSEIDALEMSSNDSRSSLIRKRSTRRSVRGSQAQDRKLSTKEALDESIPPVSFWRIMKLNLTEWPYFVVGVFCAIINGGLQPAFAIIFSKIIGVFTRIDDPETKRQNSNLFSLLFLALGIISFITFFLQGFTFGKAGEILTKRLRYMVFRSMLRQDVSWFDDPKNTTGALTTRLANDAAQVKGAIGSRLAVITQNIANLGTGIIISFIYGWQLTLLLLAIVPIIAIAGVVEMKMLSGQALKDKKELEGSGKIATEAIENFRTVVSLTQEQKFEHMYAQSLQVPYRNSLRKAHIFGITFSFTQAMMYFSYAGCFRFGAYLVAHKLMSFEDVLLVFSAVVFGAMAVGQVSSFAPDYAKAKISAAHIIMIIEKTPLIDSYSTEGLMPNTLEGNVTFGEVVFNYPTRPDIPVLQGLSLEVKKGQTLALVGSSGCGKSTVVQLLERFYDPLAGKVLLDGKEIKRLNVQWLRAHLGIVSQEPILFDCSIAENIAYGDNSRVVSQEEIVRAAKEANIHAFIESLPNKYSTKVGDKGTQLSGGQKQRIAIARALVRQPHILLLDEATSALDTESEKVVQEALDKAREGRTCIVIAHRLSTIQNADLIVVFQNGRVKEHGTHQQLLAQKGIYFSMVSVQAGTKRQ

O=C1c2cccnc2C(=O)c2c1c(C(=O)OCCN1CCOCC1)c1ccccn21 [CYB-L10] gave a GI50 (HepG2) of 65 ± 30 nM, a GI50 (NCI-H226) of 28.9 nM and a GI50 (OVCAR-8) of 28.1 nM. For the same compound, the GI50 (SNB-75) was < 10 nM, the GI50 (CAKI-1) was 33.9 nM and the GI50 (HS 578T) was 36.9 nM. For the same compound, the GI50 (UACC-257) was 54.6 nM, the GI50 (HT29) was 580 nM and the GI50 (SN 12C) was < 10 nM. For the same compound, the GI50 (DU-145) was 30.5 nM, the GI50 (SR) was < 10 nM and the GI50 (MCF7) was < 10 nM. The GI50 (PC-3) was 190 nM, the GI50 (TK-10) was 361 nM and the GI50 (M14) was < 10 nM. It also gave a GI50 (UO-31) of 13 nM, a GI50 (OVCAR-5) of 648 nM and a GI50 (SF-268) of 18.5 nM. For the same compound, the GI50 (IGROV1) was 46.2 nM, the Resistance ratio (MCF-7/ADR; GI50 MCF-7/ADR / GI50 MCF-7) was 6.6 and the GI50 (MCF-7/ADR; Homo sapiens, NCI/ADR-RES, Resistant subline MCF-7/ADR, MTT, 72 h) was 600 ± 210 nM. For the same compound, the GI50 (HCT116) was 27 ± 24 nM, the GI50 (MCF-7) was 91 nM and the “tumor weight inhibition (TWI)” value (HCT116 xenograft; 6.7 mg/kg i.p. once every 3 days) was 27.6%. For the same compound, the “tumor weight inhibition (TWI)” value (HCT116 xenograft; 20 mg/kg i.p. once every 3 days, p < 0.05) was 38.3%, the “body weight of the mice” value (HCT116 xenograft; 20 and 6.7 mg/kg i.p., vs negative control) was “no obvious loss” and the tumor volume (HCT116 xenograft; 20 and 6.7 mg/kg i.p., vs negative control, dose-dependent) was “obviously reduced the tumor volume”. The “MGM (mean graph midpoint for growth inhibition of all human cancer cell lines)” value [1] was 0.050 µM, the Resistance ratio (RC0.1; GI50 RC0.1 / GI50 DU-145) was 40.6 and the GI50 (RC0.1; Homo sapiens, 72 h, read-out: GI50 ± SD) was 650 ± 10 nM. The GI50 (HCT116-siTop1) was 190 ± 92 nM and the “substrate of the Pgp” value (P-glycoprotein (Pgp)) was “not a substrate of the P-glycoprotein; also recorded: not to be a substrate of the Pgp”.
